The subject of one assay is PAK1, PAK2, PAK3, PAK-4. As to the kind of experiment: PAK isoform inhibition profile of example compounds. In kind it is biochemical. The settings on record: classification of example compounds in the description; underlying IC50 data in Table 8. The text has this: In some embodiments, the PAK inhibitor is a Group I PAK inhibitor that inhibits, for example, one or more Group I PAK polypeptides, for example, PAK1, PAK2, and/or PAK3. […] In some embodiments, the PAK inhibitor is a PAK2 inhibitor. In some embodiments, the PAK inhibitor is a PAK3 inhibitor. In some embodiments, the PAK inhibitor is a mixed PAK1/PAK3 inhibitor. […] In some embodiments, the PAK inhibitor is a Group II PAK inhibitor that inhibits one or more Group II PAK polypeptides, for example PAK-4, PAK5, and/or PAK6. In some embodiments, the PAK inhibitor is a PAK4 inhibitor. In some embodiments, the PAK inhibitor is a PAK5 inhibitor. In some embodiments, the PAK inhibitor is a PAK6 inhibitor.
(§1) A fluorescence-based assay format is used to determine IC50 values of test compounds in vitro. Purified PAK kinase is incubated with ATP, and a test compound at various concentrations and a substrate peptide containing two fluorophores. In a second step, the reaction mix is incubated with a site-specific protease that cleaves non-phosphorylated but not phosphorylated substrate peptide, disrupting the FRET signal generated by the two fluorophores in the cleaved peptide (Z′Lyte™ Kinase assay platform; Life Technologies).
(§2) Reagents: 50 mM HEPES, pH 7.5; 0.01% BRIJ-35; 10 mM MgCl2; 1 mM EGTA, 2 uM substrate peptide Ser/Thr20 (proprietary Life Technologies Sequence), PAK enzyme [2.42-30.8 ng for PAK1, 0.29-6 ng for PAK2, 1.5-20 ng for PAK3 and 0.1-0.86 ng for PAK4; actual enzyme amounts depend on lot activity of the enzyme preparation]
(§3) Test compounds are dissolved in DMSO at various concentrations; the final DMSO concentration in the assay reaction is 1%.
(§4) ATP concentration at Km apparent is used in the assay [50 μM ATP for PAK1 assay, 75 μM ATP for PAK2 assay, 100 μM ATP for PAK3 assay, 5 μM ATP for PAK-4 assay] in a total assay volume of […] Assay reactions are incubated at room temperature for 1 hr. Following the kinase reaction, 5 μl of 1:256 dilution of development solution A (Life Technologies) is added and the reaction mix is incubated for an additional 1 hr at room temperature.
(§5) Plates are analyzed in a standard fluorescence plate reader (Tecan or equivalent) using an excitation wavelength of 400 nm and emission wavelengths of 445 nm and 520 nm. Inhibition of kinase reaction is determined by emission ratio=emission@445 nm/emission@520 nm

A further assay concerns the target PAK4 (Homo sapiens, UniProt O96013). As to the kind of experiment: Z'Lyte fluorescence-based (FRET) kinase assay, PAK4. The settings on record: 5 μM ATP (Km apparent), 1 hr room temperature, 1% DMSO. The class given is biochemical. The essentials: (§6)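 Z'Lyte FRET readout: purified PAK phosphorylates 2 μM Ser/Thr20 peptide in HEPES pH 7.5, MgCl2, EGTA, 1% DMSO, 1 h room temperature, then protease development 1 h. ATP at apparent Km: 50 μM (PAK1), 75 μM (PAK2), 100 μM (PAK3), 5 μM (PAK4). Emission ratio 445/520 nm gives IC50.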

The target of another assay is PAK2 (Homo sapiens, UniProt Q13177). Kind of assay: Z'Lyte fluorescence-based (FRET) kinase assay, PAK2. As to conditions: 75 μM ATP (Km apparent), 1 hr room temperature, 1% DMSO. In kind it is biochemical. Put shortly: as §6
In the next assay the target is PAK1 (Homo sapiens, UniProt Q13153). Kind of assay: Z'Lyte fluorescence-based (FRET) kinase assay, PAK1. The class given is biochemical. As to conditions: 50 μM ATP (Km apparent), 1 hr room temperature, 1% DMSO. The essentials:
as §6

The target of a further assay is PAK3 (Homo sapiens, UniProt O75914). As to the kind of experiment: Z'Lyte fluorescence-based (FRET) kinase assay, PAK3. In kind it is biochemical. The settings on record: 100 μM ATP (Km apparent), 1 hr room temperature, 1% DMSO. On the procedure: as §1, §2, §3, §4, §5
In assay [1] the test system is Wistar rat pups injected with tetanus toxin. The settings on record: in vivo.

The results in this text go back to US8674095B2, “Compounds for treating neuropsychiatric conditions” (Afraxis Holdings, Inc., priority 2008, dated 2014).

Chain of PAK1 (Q13153 whole entry): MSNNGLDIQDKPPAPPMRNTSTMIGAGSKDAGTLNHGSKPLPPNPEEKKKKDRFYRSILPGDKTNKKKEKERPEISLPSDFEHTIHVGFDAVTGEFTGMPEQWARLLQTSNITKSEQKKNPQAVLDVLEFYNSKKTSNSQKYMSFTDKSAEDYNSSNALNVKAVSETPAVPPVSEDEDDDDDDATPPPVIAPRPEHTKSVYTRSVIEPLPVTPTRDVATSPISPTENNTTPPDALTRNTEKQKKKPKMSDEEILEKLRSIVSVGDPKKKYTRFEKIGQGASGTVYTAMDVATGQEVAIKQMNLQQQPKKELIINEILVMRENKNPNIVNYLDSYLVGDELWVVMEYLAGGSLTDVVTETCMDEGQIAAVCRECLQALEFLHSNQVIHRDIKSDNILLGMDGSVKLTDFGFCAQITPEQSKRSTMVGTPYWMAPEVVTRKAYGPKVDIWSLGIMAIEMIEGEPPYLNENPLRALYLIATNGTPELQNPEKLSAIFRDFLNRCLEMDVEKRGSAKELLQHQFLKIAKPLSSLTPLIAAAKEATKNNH
Chain of PAK2 (Q13177 whole entry): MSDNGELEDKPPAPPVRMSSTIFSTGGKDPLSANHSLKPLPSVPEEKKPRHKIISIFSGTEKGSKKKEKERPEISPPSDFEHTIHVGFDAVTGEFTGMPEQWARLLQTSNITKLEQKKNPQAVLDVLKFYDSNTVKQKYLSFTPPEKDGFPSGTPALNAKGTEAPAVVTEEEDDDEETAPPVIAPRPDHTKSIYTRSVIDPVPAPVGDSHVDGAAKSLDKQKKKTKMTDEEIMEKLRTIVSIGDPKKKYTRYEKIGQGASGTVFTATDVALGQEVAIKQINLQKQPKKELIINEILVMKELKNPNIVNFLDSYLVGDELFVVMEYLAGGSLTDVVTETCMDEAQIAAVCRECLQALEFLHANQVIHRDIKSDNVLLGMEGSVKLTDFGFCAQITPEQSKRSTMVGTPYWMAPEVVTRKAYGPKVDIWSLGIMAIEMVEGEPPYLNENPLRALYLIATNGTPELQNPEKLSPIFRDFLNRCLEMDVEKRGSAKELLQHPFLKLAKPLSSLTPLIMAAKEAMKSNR
Chain of PAK3 (O75914 whole entry): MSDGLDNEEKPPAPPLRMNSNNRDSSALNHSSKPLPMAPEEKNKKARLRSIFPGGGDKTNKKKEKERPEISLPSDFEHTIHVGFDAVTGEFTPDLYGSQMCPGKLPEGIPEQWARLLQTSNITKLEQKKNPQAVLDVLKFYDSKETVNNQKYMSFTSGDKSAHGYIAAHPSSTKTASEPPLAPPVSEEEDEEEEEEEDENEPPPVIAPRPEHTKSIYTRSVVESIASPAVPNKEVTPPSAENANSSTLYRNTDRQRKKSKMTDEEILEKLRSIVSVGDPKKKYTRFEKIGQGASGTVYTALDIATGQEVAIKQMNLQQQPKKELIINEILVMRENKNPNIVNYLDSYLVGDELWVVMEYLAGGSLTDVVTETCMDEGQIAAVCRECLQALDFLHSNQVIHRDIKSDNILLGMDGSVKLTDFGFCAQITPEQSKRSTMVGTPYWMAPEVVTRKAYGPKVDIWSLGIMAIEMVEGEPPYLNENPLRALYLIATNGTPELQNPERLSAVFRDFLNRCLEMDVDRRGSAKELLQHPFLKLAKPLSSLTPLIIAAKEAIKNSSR
Chain of PAK4 (O96013 whole entry): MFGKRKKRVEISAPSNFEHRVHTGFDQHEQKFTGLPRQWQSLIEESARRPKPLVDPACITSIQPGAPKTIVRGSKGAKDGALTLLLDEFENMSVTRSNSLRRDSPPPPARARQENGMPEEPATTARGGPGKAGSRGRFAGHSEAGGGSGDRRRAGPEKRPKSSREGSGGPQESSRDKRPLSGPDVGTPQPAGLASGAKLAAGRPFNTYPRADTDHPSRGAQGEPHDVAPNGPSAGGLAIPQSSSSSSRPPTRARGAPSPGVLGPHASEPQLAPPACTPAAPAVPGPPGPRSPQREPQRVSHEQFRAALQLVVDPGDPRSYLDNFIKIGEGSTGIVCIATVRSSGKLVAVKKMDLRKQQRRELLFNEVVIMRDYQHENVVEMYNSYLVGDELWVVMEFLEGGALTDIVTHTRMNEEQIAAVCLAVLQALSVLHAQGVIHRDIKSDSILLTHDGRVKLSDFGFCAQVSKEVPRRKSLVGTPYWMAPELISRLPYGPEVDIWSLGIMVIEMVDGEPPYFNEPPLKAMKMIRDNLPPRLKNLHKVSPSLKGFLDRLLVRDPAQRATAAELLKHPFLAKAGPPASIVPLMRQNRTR

By IC50 is commonly meant the concentration that inhibits the measured activity by half. In the case of `CN1CCN(c2ccc(Nc3ncc4ccc(=O)n([C@H]5CCCc6ccccc65)c4n3)cc2)CC1` [Compound 12], in the assay with PAK1, PAK2, PAK3, PAK-4, the “PAK inhibitor type (isoform profile)” value is recorded as “PAK1 inhibitor”. In addition, the IC50 on PAK4 is 1000 to 10000 nM; on PAK2, 1000 to 10000 nM; at PAK1, below 1000 nM; on PAK3 it was 1000 to 10000 nM. Moreover, in assay [1], the Effect on seizures result is “reduce the frequency and severity of seizures”.

For `CN1CCN(c2ccc(Nc3ncc4ccc(=O)n(Cc5ccccc5C5CC5)c4n3)cc2)CC1` [Compound 81, 8-(2-cyclopropylbenzyl)-2-(4-(4-methylpiperazin-1-yl)phenylamino)pyrido[2,3-d]pyrimidin-7(8H)-one], in the assay with PAK1, PAK2, PAK3, PAK-4, the “PAK inhibitor type (isoform profile)” value was “mixed PAK1/PAK2/PAK3/PAK-4 inhibitor”. Moreover, the IC50 at PAK4, at PAK2, on PAK1 and on PAK3 was below 1000 nM each time.

On to `CN1CCN(c2ccc(Nc3ncc4ccc(=O)n(Cc5c(Cl)cccc5C5CC5)c4n3)cc2)CC1` [Compound 84], for which, in the assay with PAK1, PAK2, PAK3, PAK-4, the “PAK inhibitor type (isoform profile)” value was “inhibits all three Group I PAK isoforms (PAK1, 2 and PAK3) with equal or similar potency”. For the same molecule, the IC50 at PAK4 was 1000 to 10000 nM; at PAK2 it was below 1000 nM; on PAK1 it was below 1000 nM; on PAK3 it was below 1000 nM.

`CN1CCN(c2ccc(Nc3nccc(-c4ccc(NCCN)nc4)n3)cc2)CC1.Cl` [Compound 94, N-(5-{2-[4-(4-Methyl-piperazin-1-yl)-phenylamino]-pyrimidin-4-yl}-pyridin-2-yl)-ethane-1,2-diamine hydrochloride]: the “PAK inhibitor type (isoform profile)” value in the assay with PAK1, PAK2, PAK3, PAK-4 is “mixed PAK1/PAK-4 inhibitor”. Also, the IC50 at PAK4 is below 1000 nM; at PAK2, 1000 to 10000 nM; on PAK1, below 1000 nM; at PAK3 it was 1000 to 10000 nM.

With `NCCNc1ccc(-c2ccnc(Nc3ccc(N4CCNCC4)cc3)n2)cn1` [Compound 111], the “PAK inhibitor type (isoform profile)” value with PAK1, PAK2, PAK3, PAK-4 is on record as “mixed PAK1/PAK-4 inhibitor”. For the same molecule, the IC50 on PAK4 was below 1000 nM; at PAK2, 1000 to 10000 nM; at PAK1, below 1000 nM; at PAK3, 1000 to 10000 nM.

For the molecule `CN1CCN(c2ccc(Nc3nccc(-c4ccc(NCCN)nc4)n3)cc2F)CC1` [Compound 113], in the assay on PAK1, PAK2, PAK3, PAK-4, the “PAK inhibitor type (isoform profile)” value is on record as “mixed PAK1/PAK-4 inhibitor”. In addition, the IC50 on PAK4 is below 1000 nM; at PAK2, 1000 to 10000 nM; at PAK1 it was below 1000 nM; at PAK3 it was 1000 to 10000 nM.

Consider `CN1CCN(c2ccc(Nc3ncc4cc(-c5ccccc5)c(=O)n(Cc5ccccc5C(F)(F)F)c4n3)cc2)CC1` [Compound 119], for which, in the assay with PAK1, PAK2, PAK3, PAK-4, the “PAK inhibitor type (isoform profile)” value was “inhibits all three Group I PAK isoforms (PAK1, 2 and PAK3) with equal or similar potency”. The IC50 on PAK4 is above 10000 nM; at PAK2, below 1000 nM; on PAK1 it was below 1000 nM; on PAK3, below 1000 nM.
